From EP3067369A1, “Methods and compositions for the treatment of anti-angiogenic resistant cancer” (Institut d'Investigació Biomèdica de Bellvitge (IDIBELL), priority 2015, dated 2016)
Entries after “also recorded” stand apart in the source; their conditions may differ.

Tests used:
REN 50 cells = test: Effectiveness experiment: REN 50 renal tumors implanted in mice (tumor volume/weight, CD31 vascular density, necrosis); assay type: in vivo; details: for vascular density / tumor vasculature (anti-CD31 immunohistochemistry) / tumor weight and volume / percentage of necrosis: REN 50 tumors; for vascular density / tumor vasculature (anti-CD31 immunohistochemistry) / percentage of necrosis: compared to the control group; for vascular density / tumor vasculature (anti-CD31 immunohistochemistry): Figures 5 and 6; for tumor weight and volume: continuous administration; for percentage of necrosis: hematoxylin-eosin sections, Figure 7
Method: An effectiveness experiment was performed according to the following scheme: tumors of about 2 mm^3 size were implanted in mice, and the tumors were allowed to develop for 20 days (to a size of about 750 mm^3). The time from tumor development to death was measured as the anti-angiogenic response.
7 mice were implanted per treatment group. REN 50 cells were implanted. Treatment started when mice developed tumors with a volume tumor of about 750 mm^3, and lasted for three weeks. Table 2. Treatment groups
The inventors then analyzed whether these inhibitors produced any effect at the level of tumor vasculature by conducting in immunohistochemistry, using an anti-CD31 antibody as a marker of endothelial cells.
Hematoxylin-eosin stained paraffin sections of tumors obtained from mice from the different treatment groups were analyzed in order to evaluate the degree of necrosis.

primary tumor REN 28 = test: Long-term survival / anti-angiogenic resistance experiment: tumors from primary tumor REN 28 in mice; assay type: in vivo
Description: The inventors assessed next the effect of therapy with PD-ECGF inhibitors in a long term survival experiment, wherein the tumors are able to regrow (resistance) and wherein PD-ECGF overexpression has been observed.
A survival experiment was followed, wherein the drugs previously tested on the primary tumor from REN 28 were continuously administered. This tumor line was selected because the inventors this tumor is able to generate an anti-angiogenic resistance phenotype with after treatment with bevacizumab and DC101.
Again, tumors of about 2 mm^3 size were implanted in mice, and the tumors were allowed to develop for 30 days (with a size of about 1,000 mm^3). The time from tumor development to death was measured as the anti-angiogenic resistance.
Tumors were measured and weighted; samples were collected for further processing. Treatments were stopped or changed on day 15. Table 3. Treatment groups.
Several treatment strategies were followed in anti-VEGFR2 resistant tumors: • 1. stop the anti-VEGFR2 (DC101) treatment just when the tumors begin to becomes resistant, and verify if said tumors are able to regrow with or without vasculature (represented as "DC101→R→OFF" treatment group), • 2. change the VEGFR2 inhibition therapy by the inhibition of another pathway (PD-ECGF) (represented as "DC101→R→AEAC" treatment group), • 3. combine the VEGFR2-inhibition therapy (DC101) and the PD-ECGF-inhibition therapy ([…]) (represented as "DC101→R→DC101 1 + AEAC" treatment group).

[1] = AEAC added to DC101 after development of resistance (DC101→R→DC101 + AEAC)
[2] = therapy changed from DC101 to AEAC at onset of resistance (DC101→R→AEAC)

Row | Structure (SMILES) | vascular density / tumor vasculature (anti-CD31 immunohistochemistry) (REN 50 cells) | tumor weight and volume (REN 50 cells) | percentage of necrosis (REN 50 cells) | number of vessels (labeled with anti-CD31 antibody) (REN 50 cells; after 21 days of treatment, Figure 6) | number of vessels / vascular density (primary tumor REN 28; [1]) | toxicity to animals (primary tumor REN 28; [1]) | tumor size / tumor volume (primary tumor REN 28; [1]) | average and total survival (primary tumor REN 28; REN 28, continuous treatment, compared to control mice, Figure 8) | survival (primary tumor REN 28; [2]) | time of tumor progression (primary tumor REN 28; [2]) | number of vessels (labeled with anti-CD31 antibody) (REN 50 cells; after 15 days of treatment, Figure 5)
1 | NCCNc1[nH]c(=O)[nH]c(=O)c1Cl [AEAC, 6-(2-aminoethyl)amino-5-chlorouracil] | decreased tumor vasculature | decreased tumor weight and volume | increased tumor necrosis | decrease in the number of vessels | decreased vascular density | toxic | small tumoral volume; also recorded: sustained effect on tumor volume reduction | increased average and total survival | increased survival | delayed the time of tumor progression | –
2 | Oc1ncnc2c1ncn2[C@@H]1O[C@H](COC(c2ccccc2)(c2ccccc2)c2ccccc2)[C@@H](O)[C@H]1O [KIN 59, 5'-O-trityl-inosine] | decreased tumor vasculature | decreased tumor weight and volume | increased tumor necrosis | – | – | – | – | – | – | – | decrease in the number of vessels
